Source: US5734012A, “Cyclic motilin-like polypeptides with gastrointestinal motor stimulating activity” (Ohmeda Pharmaceutical Products Division Inc., priority 1996, dated 1998)
Like-named read-outs stand apart in the source and are kept apart here. Positions of bridges follow the written chain, without caps; N, C: chain ends. Non-standard residues stand in square brackets, D forms with d. Residues, ends and D or L forms follow the SMILES beside them. *: point of attachment. X1 = C[N+](C)(C)[C@@H](Cc1ccccc1)C(=O)*; NMeF = CN[C@@H](Cc1ccccc1)C(=O)O; dNMeF = CN[C@H](Cc1ccccc1)C(=O)O

Key:
[1] = In vitro stability testing in 2% hog kidney homogenate; assay type: in vitro ADME; conditions: for half-life at 0.5 mg/ml: pig, kidney or brush border membranes
Method: Like most small linear polypeptides, motilin is believed to be metabolized by the brush border cells of the kidney. Therefore, kidney homogenate was chosen as the model system for assessing the relative in vivo biostability of the peptides of this invention. All peptides to be studied were incubated in hog kidney (Pel Freeze, Inc., Rogers, Ark.) (2% w/v; final volume=4 mls; buffer=HEPES pH 7.0) at 25° C. […] In order to determine suitable incubation times and sampling intervals, two experiments were conducted with each polypeptide. The first run served as a rough estimate of peptide stability. All sampling was performed in duplicate. Sample volume was 180 μl. Sample clean-up was performed by addition of 20 μl of 100% TCA (final volume=200 μl; final TCA concentration=10%). The sample was vortexed from 5 to 10 seconds to ensure equilibration, then centrifuged to spin out the precipitated proteins. Analysis was carried out on a Waters HPLC system with autoinjector, a 5 μVydac C-18 analytical column, and a Waters 481 UV detector set at 214 nm. Injection volume was 80 μl. Initial solvent conditions were 20% acetonitrile / 80% (0.1%) TFA in Milli-Q water with a 35 minute gradient running to 63% acetonitrile / 37% (0.1%) TFA at 1 ml/min. Polypeptide substrate and metabolite peaks were ratioed to the internal standard and the duplicate sample ratios were averaged. The average ratio for the peptide substrate was expressed as a percentage and plotted versus time. First-order kinetics was assumed for data treatment. The rate of disappearance of the substrate was calculated using the Enzfitter program (Biosoft). Relative half-lives were determined from the relationship: […]

[2] = target: rabbit duodenal smooth muscle strip (Oryctolagus cuniculus, UniProt G1T803); test: Rabbit duodenal smooth muscle strip tissue bath assay (contractility); assay type: cell-based; conditions: negative logarithm of dose giving 50% of maximal response to motilin; isotonic contraction of rabbit duodenum segments
Chain of rabbit duodenal smooth muscle strip (G1T803 1-400): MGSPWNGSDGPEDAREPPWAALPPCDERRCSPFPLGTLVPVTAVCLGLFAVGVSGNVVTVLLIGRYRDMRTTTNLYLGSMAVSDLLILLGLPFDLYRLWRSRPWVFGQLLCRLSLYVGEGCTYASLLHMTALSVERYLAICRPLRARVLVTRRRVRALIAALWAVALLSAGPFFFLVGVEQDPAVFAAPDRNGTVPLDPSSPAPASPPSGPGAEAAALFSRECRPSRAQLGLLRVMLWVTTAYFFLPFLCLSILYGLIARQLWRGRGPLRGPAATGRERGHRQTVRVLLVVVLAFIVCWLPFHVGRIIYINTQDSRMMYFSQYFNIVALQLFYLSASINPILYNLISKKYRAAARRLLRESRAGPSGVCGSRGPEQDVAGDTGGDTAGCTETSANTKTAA
Method: The experimental protocol consisted of an equilibration period of 1 hour; a challenge with 10^-4 M acetylcholine followed by a wash-out period; a cumulative dose-response curve of a compound with, at the end, the addition of 10^-7 M motilin; and finally 10^-4 M acetylcholine. If the final response to 10^-4 M acetylcholine differed by more than 5% from the initial response, the results were discarded.

motilin receptor = target: T1, motilin receptor (Oryctolagus cuniculus, UniProt G1T803); test: Motilin receptor binding affinity (displacement of [125I-Tyr7,Nle13]motilin(porcine)); design: species or system rabbit
T1 construct: from tissue; host or cells: rabbit antral smooth muscle membranes
T1 sequence (G1T803 1-400): as above
Method: The motilin receptor binding affinity of the peptides of this invention was determined by using the general procedure of Bormans, Peeters and Vantrappen, Regul. […] Fitting was performed using the iterative least-squares procedure of the SAS-software package (SAS Institute, Inc., Cary, N.C., USA).

[3] = negative logarithm of concentration displacing 50% of [125I-Tyr7,Nle13]motilin(porcine) bound to rabbit antral smooth muscle membranes, read-out: pIC50 (converted)

Compound | pEC50 [2] | IC50 (motilin receptor; [3]) [nM] | further results
CC[C@H](C)[C@H](NC(=O)[C@@H]1CCCN1C(=O)[C@@H](NC(=O)[C@@H](N)Cc1ccccc1)C(C)C)C(=O)N[C@@H](Cc1ccccc1)C(=O)N[C@H](C(=O)N[C@@H](Cc1ccc(O)cc1)C(=O)NCC(=O)N[C@@H](CCC(=O)O)C(=O)N[C@@H](CC(C)C)C(=O)N[C@@H](CCC(N)=O)C(=O)N[C@@H](CCCN=C(N)N)C(=O)N[C@@H](CC(C)C)C(=O)N[C@@H](CCC(N)=O)C(=O)N[C@@H](CCC(=O)O)C(=O)N[C@@H](CCCCN)C(=O)N[C@@H](CCC(=O)O)C(=O)N[C@@H](CCCN=C(N)N)C(=O)N[C@@H](CC(N)=O)C(=O)N[C@@H](CCCCN)C(=O)NCC(=O)N[C@@H](CCC(N)=O)C(=O)O)[C@@H](C)O [SEQ ID NO:3, [Leu^13]pMOT(1-22), reference compound] (H-FVPIFTYGELQRLQEKERNKGQ-OH) | – | – | half-life at 0.5 mg/ml ([1]; 2% w/v hog kidney homogenate, HEPES pH 7.0, 25° C., 0.5 mg/ml substrate, first-order kinetics, read-out: T1/2): 30.2 min
CC[C@H](C)[C@H](NC(=O)[C@@H]1CCCN1C(=O)[C@@H](NC(=O)[C@@H](N)Cc1ccccc1)C(C)C)C(=O)N[C@@H](Cc1ccccc1)C(=O)N[C@H](C(=O)N[C@@H](Cc1ccc(O)cc1)C(=O)NCC(=O)N[C@@H](CCC(=O)O)C(=O)N[C@H]1CC(=O)NCCCC[C@@H](C(N)=O)NC(=O)[C@H](CC(C)C)NC(=O)[C@H](CCCNC(=N)N)NC(=O)[C@H](CCC(N)=O)NC1=O)[C@@H](C)O [SEQ ID NO:6, cyclo^10,14 [Asp^10, Leu^13, Lys^14]pMOT(1-14)] (H-FVPIFTYGEDQRLK-NH2; lactam 10-14) | 7.77 | 1.51 | –
CC[C@H](C)[C@H](NC(=O)[C@@H]1CCCN1C(=O)[C@@H](NC(=O)[C@H](Cc1ccccc1)NC)C(C)C)C(=O)N[C@@H](Cc1ccccc1)C(=O)N[C@H](C(=O)N[C@@H](Cc1ccc(O)cc1)C(=O)NCC(=O)N[C@@H](CCC(=O)O)C(=O)N[C@H]1CC(=O)NCCCC[C@@H](C(=O)N[C@@H](CCCCN)C(N)=O)NC(=O)[C@H](CC(C)C)NC(=O)[C@H](CCCNC(=N)N)NC(=O)[C@H](C)NC1=O)[C@@H](C)O [SEQ ID NO:8, cyclo^10,14 [N-MePhe^1,Asp^10,Ala^11,Leu^13,Lys^14,Lys^15]pMOT(1-15) amide] (H-[NMeF]VPIFTYGEDARLKK-NH2; lactam 10-14) | 7.69 | 1.1 | –
CC[C@H](C)[C@H](NC(=O)[C@@H]1CCCN1C(=O)[C@@H](NC(=O)[C@H](Cc1ccccc1)NC)C(C)C)C(=O)N[C@@H](Cc1ccccc1)C(=O)N[C@H](C(=O)N[C@@H](Cc1ccc(O)cc1)C(=O)NCC(=O)N[C@@H](CCC(=O)O)C(=O)N[C@H]1CC(=O)NCCCC[C@@H](C(=O)N[C@H](CCCCN)C(N)=O)NC(=O)[C@H](CC(C)C)NC(=O)[C@H](CCCNC(=N)N)NC(=O)[C@H](C)NC1=O)[C@@H](C)O [SEQ ID NO:9, cyclo^10,14 [N-MePhe^1,Asp^10,Ala^11,Leu^13,Lys^14,D-Lys^15]pMOT(1-15) amide] (H-[NMeF]VPIFTYGEDARLK[dK]-NH2; lactam 10-14) | 7.89 | – | IC50 (motilin receptor): 0.661 nM
CC[C@H](C)[C@H](NC(=O)[C@@H]1CCCN1C(=O)[C@@H](NC(=O)[C@H](Cc1ccccc1)NC)C(C)C)C(=O)N[C@@H](Cc1ccccc1)C(=O)N[C@H](C(=O)N[C@@H](Cc1ccc(O)cc1)C(=O)NCC(=O)N[C@@H](CCC(=O)O)C(=O)N[C@H]1CCC(=O)NCCCC[C@@H](C(=O)N[C@@H](CCCCN)C(N)=O)NC(=O)[C@H](CC(C)C)NC(=O)[C@H](CCCNC(=N)N)NC(=O)[C@H](C)NC1=O)[C@@H](C)O [SEQ ID NO:10, cyclo^10,14 [N-MePhe^1,Glu^10,Ala^11,Leu^13,Lys^14,Lys^15]pMOT(1-15) amide] (H-[NMeF]VPIFTYGEEARLKK-NH2; lactam 10-14) | 7.96 | 0.631 | half-life at 0.5 mg/ml ([1]; pH 7): 21 min
CC[C@H](C)[C@H](NC(=O)[C@@H]1CCCN1C(=O)[C@@H](NC(=O)[C@H](Cc1ccccc1)[N+](C)(C)C)C(C)C)C(=O)N[C@@H](Cc1ccccc1)C(=O)N[C@H](C(=O)N[C@@H](Cc1ccc(O)cc1)C(=O)NCC(=O)N[C@@H](CCC(=O)O)C(=O)N[C@H]1CC(=O)NCCCC[C@@H](C(=O)N[C@H](CCCCN)C(N)=O)NC(=O)[C@H](CC(C)C)NC(=O)[C@H](CCCNC(=N)N)NC(=O)[C@H](C)NC1=O)[C@@H](C)O [SEQ ID NO:11, cyclo^10,14 [Me3 N^+ Phe^1,Asp^10,Ala^11,Leu^13,Lys^14,D-Lys^15]pMOT(1-15) amide] (X1-VPIFTYGEDARLK[dK]-NH2; lactam 9-13) | 7.89 | 1.23 | half-life at 0.5 mg/ml ([1]; pH 7): 437 min
CC[C@H](C)[C@H](NC(=O)[C@@H]1CCCN1C(=O)[C@@H](NC(=O)[C@@H](Cc1ccccc1)NC)C(C)C)C(=O)N[C@@H](Cc1ccccc1)C(=O)N[C@H](C(=O)N[C@@H](Cc1ccc(O)cc1)C(=O)NCC(=O)N[C@@H](CCC(=O)O)C(=O)N[C@H]1CCC(=O)NCCCC[C@@H](C(N)=O)NC(=O)[C@H](CC(C)C)NC(=O)[C@H](CCCNC(=N)N)NC(=O)[C@H](CCC(N)=O)NC1=O)[C@@H](C)O [SEQ ID NO:13, cyclo^10,14 [N-Me-D-Phe^1,Glu^10,Leu^13,Lys^14 pMOT(1-14) amide] (H-[dNMeF]VPIFTYGEEQRLK-NH2; lactam 10-14) | 6.87 | 5.5 | –
CC[C@H](C)[C@H](NC(=O)[C@@H]1CCCN1C(=O)[C@@H](NC(=O)[C@H](Cc1ccccc1)[N+](C)(C)C)C(C)C)C(=O)N[C@@H](Cc1ccccc1)C(=O)N[C@H](C(=O)N[C@@H](Cc1ccc(O)cc1)C(=O)NCC(=O)N[C@@H](CCC(=O)O)C(=O)N[C@H]1CCC(=O)NCCCC[C@@H](C(N)=O)NC(=O)[C@H](CC(C)C)NC(=O)[C@H](CCCNC(=N)N)NC(=O)[C@H](CCC(N)=O)NC1=O)[C@@H](C)O [SEQ ID NO:14, cyclo^10,14 [Me3 N^+ Phe^1,Glu^10,Leu^13,Lys^14]pMOT(1-14) amide] (X1-VPIFTYGEEQRLK-NH2; lactam 9-13) | 7.38 | – | T1/2 ([1]; pH 7): > 200 min
CC[C@H](C)[C@H](NC(=O)[C@@H]1CCCN1C(=O)[C@@H](NC(=O)[C@H](Cc1ccccc1)NC)C(C)C)C(=O)N[C@@H](Cc1ccccc1)C(=O)N[C@H](C(=O)N[C@@H](Cc1ccc(O)cc1)C(=O)NCC(=O)N[C@@H](CCC(=O)O)C(=O)N[C@H]1CC(=O)NCCCC[C@@H](C(N)=O)NC(=O)[C@H](CC(C)C)NC(=O)[C@@H](CCCNC(=N)N)NC(=O)[C@H](C)NC1=O)[C@@H](C)O [SEQ ID NO:23, cyclo^10,14 [N-MePhe^1,Asp^10,Ala^11,D-Arg^12,Leu^13,Lys^14]pMOT(1-14) amide] (H-[NMeF]VPIFTYGEDA[dR]LK-NH2; lactam 10-14) | 7.89 | 11.5 | –
CC[C@H](C)[C@H](NC(=O)[C@@H]1CCCN1C(=O)[C@@H](NC(=O)[C@H](Cc1ccccc1)[N+](C)(C)C)C(C)C)C(=O)N[C@@H](Cc1ccccc1)C(=O)N[C@H](C(=O)N[C@@H](Cc1ccc(O)cc1)C(=O)NCC(=O)N[C@@H](CCC(=O)O)C(=O)N[C@H]1CC(=O)NCCCC[C@@H](C(N)=O)NC(=O)[C@H](CC(C)C)NC(=O)[C@@H](CCCNC(=N)N)NC(=O)[C@H](C)NC1=O)[C@@H](C)O [SEQ ID NO:24, cyclo^10,14 [Me3 N^+ Phe^1,Asp^10,Ala^11,D-Arg^12,Leu^13,Lys^14]pMOT(1-14) amide] (X1-VPIFTYGEDA[dR]LK-NH2; lactam 9-13) | 7.02 | 12.6 | –
CC[C@H](C)[C@H](NC(=O)[C@@H]1CCCN1C(=O)[C@@H](NC(=O)[C@@H](N)Cc1ccccc1)C(C)C)C(=O)N[C@@H](Cc1ccccc1)C(=O)N[C@H](C(=O)N[C@@H](Cc1ccc(O)cc1)C(=O)NCC(=O)N[C@@H](CCC(=O)O)C(=O)N[C@@H](CC(C)C)C(=O)N[C@@H](CCC(N)=O)C(=O)N[C@@H](CCCNC(=N)N)C(=O)N[C@@H](CC(C)C)C(=O)N[C@@H](CCC(N)=O)C(=O)O)[C@@H](C)O [SEQ ID NO:27, [Leu^13]pMOT(1-14), reference compound] (H-FVPIFTYGELQRLQ-OH; N-terminus and C-terminus assumed) | – | – | half-life at 0.5 mg/ml ([1]; pH 7): 7.5 min
